Article PMC1559639 (BMC Clinical Pharmacology, 2006)
Where “and” joins values, the source holds several entries; their conditions need not be identical. Equal entries are not always repeated. Where two headings read alike, the source gives them in different places. Values belong to the molecule of their own block, whether it stands above or below them.

Tests used:
[1] = Plasma kinetics after single oral dose of 300 mg Pycnogenol in healthy volunteers; format: in vivo, human; settings: for half-life: read-out: term t½ (terminal half-life) (converted); for tmax: read-out: tmax (time of maximal plasma concentration)
Description: Eleven volunteers (five female and six male) participated in this study. After a 24 hour diet free of flavonoids (no vegetables, fruits and fruit juices or marmalades, tea, coffee, cocoa, wine and beer) a venous blood catheter was inserted into an antecubital vein and blood samples were drawn to obtain basal values (t = 0 h at 8:00 a.m.). […] After each blood sampling mineral water was served. Blood samples were obtained at t = 0.5 h, 1 h, 2 h, 4 h, 6 h, 8 h, 10 h, 12 h and 14 h. Samples were centrifuged and plasma was aliquoted, shock frozen and stored at -80°C until further analysis.
(§1) Plasma samples of 2.0 mL were prepared for analysis. For determination of total plasma concentration, to each sample 20 U β-glucuronidase (type H-3 from Helix pomatia; EC 3.2.1.31) and 20 U sulfatase (type H-1 from Helix pomatia; EC 3.1.6.1) were added in 50 mM sodium acetate buffer (pH 5.0) and incubated for 2 h at 37°C under gentle shaking. Samples for determination of free plasma concentrations were prepared without prior incubation with enzymes. Each 20 μL of p-hydroxybenzoic acid methylester (100 μg/mL; for HPLC UV detection) and hydrochinone (10 μg/mL; for HPLC electrochemical detection) were added as internal standards and samples were acidified with 100 μL 1 M-HCl. Samples were extracted twice with each 3 mL acetic acid methylester for 20 min, using a roller mixer, followed by centrifugation (20°C) 5 min. The organic phases of both extractions were separated, combined and evaporated to dryness under a gentle stream of nitrogen at 25°C. The resulting residue was reconstituted in 100 μL methanol and subjected to HPLC analysis.
(§2) The HPLC system was a Waters HPLC (Milford, MA, USA) consisted of a 1525 binary pump, a 717plus autosampler, a 2487 dual wavelength absorbance detector set at the detection wavelength of 280 nm and an electrochemical detector CLC 100 (Chromsystems, Munich, Germany) set at an oxidation voltage of 0.5 V. The second detector was connected to the control system by a satellite interface (Waters). Data collection and integration were accomplished using Breeze™ software version 3.30. Analysis was performed on a Zorbax SB C8 column (150 × 4.6 mm I.D., 5 μm particle size, Agilent Technologies, Palo Alto, CA, USA).
(§3) Typically, 20 μL of sample were injected and separated at a flow rate of 1 mL/min. Isocratic elution was performed using water (containing 0.6 mM 1-octanesulfonic acid sodium salt, 0.27 mM ethylenediaminetetraacetic acid disodium salt, 0.04 M triethylamine; pH 2.95 adjusted with phosphoric acid) and acetonitrile (ACN, HPLC gradient quality, Fisher Scientific, Schwerte, Germany). Method A (for UV detection of ferulic acid, M2 (δ-(3-Methoxy-4-hydroxy-phenyl)-γ-valerolactone), U1, U2, U3, U4, U7, U8, and U9) used water/ACN at 85:15 (v/v).

[2] = clinical; format: in vivo; settings: for % conjugated (mean degree of conjugation with sulfate and glucuronic acid): steady state plasma, mean of volunteers; for concentration at 4 h: both sexes, 200 mg
Description: Five volunteers (four female and one person) participated in this study. After a 24 hour diet free of flavonoids blood samples were drawn to obtain basal values. […] It was assumed that steady state plasma concentrations were reached after 5 days.
Four hours after the last intake of Pycnogenol on day five a second blood sample was obtained from each volunteer. Again, a 24 hour period of a diet free of flavonoids preceded this blood sampling. Blood samples were centrifuged and plasma was aliquoted, shock frozen and stored at -80°C until further analysis.
as §1, §2, §3

[3] = cited from earlier work; for t½: reported previously
[4] = tested on: MMP-9 release; settings: in vitro / cell culture assays; read-out: IC50, inhibition of MMP-9 release; cited from earlier work
[5] = both sexes, human, plasma, oral, 300 mg, single dose 300 mg Pycnogenol, total plasma, read-out: cmax converted to molar concentration
[6] = both sexes, human, plasma, po, 300 mg, human volunteers, single oral dose 300 mg Pycnogenol, total (free and conjugated) plasma, t = 14 h, mean ± SD, read-out: AUC [0-t]
[7] = both sexes, human, plasma, po, 300 mg, human volunteers, single oral dose 300 mg Pycnogenol, total plasma, mean ± SD, read-out: AUC [t-8]
[8] = both sexes, human, plasma, po, 300 mg, human volunteers, single oral dose 300 mg Pycnogenol, total plasma, mean ± SD, read-out: cmax (maximal plasma concentration)
[9] = both sexes, human, plasma, po, 300 mg
[10] = human volunteers, single oral dose 300 mg Pycnogenol, total plasma, mean ± SD
[11] = 200 mg Pycnogenol once daily for five days
[12] = both sexes, human, plasma, po, 300 mg, human volunteers, single oral dose 300 mg Pycnogenol, total plasma, mean ± SD
[13] = human, plasma, oral, 200 mg Pycnogenol once daily for five days, 4 h after last dose, with sulfatase and glucuronidase, mean ± mean deviation, read-out: Total plasma concentration
[14] = human, plasma, oral, 200 mg Pycnogenol once daily for five days, 4 h after last dose, without enzyme incubation, read-out: Free plasma concentration
[15] = both sexes, human, plasma, oral, 300 mg

Structure (SMILES): O=C(O)Cc1ccc(O)c(O)c1 [3,4-dihydroxyphenylacetic acid]
detection of taxifolin degradation products in volunteers' plasma ([1]; after Pycnogenol intake): failed to detect

Structure (SMILES): Oc1cc(O)cc(O)c1 [phloroglucin]
detection of taxifolin degradation products in volunteers' plasma ([1]; human, in vivo): failed to detect

Structure (SMILES): COc1cc(/C=C/C(=O)O)ccc1O [Ferulic acid, ferulic acid]
Cmax [1, 5]: ~75 nM
AUC(0-t) [1, 6]: 99 ± 28.1 ng·h/mL
AUC(0-t) [1, 7]: 141 ± 73.9 ng·h/mL
Cmax [1, 8]: ~15 ng/mL
half-life [1, 9]: 6.87 ± 3.83 h
cmax (maximal plasma concentration) [1, 10]: 14.78 ± 5.89 ng/mL
tmax (time of maximal plasma concentration) [1, 10]: 1.2 ± 1.1 h
tmax (time of maximal plasma concentration) ([1]; human volunteers, single oral dose 300 mg Pycnogenol, total plasma, mean ± SD, listed as ferulic acid): 0.5 to 1 h and 1 h
% conjugated (mean degree of conjugation with sulfate and glucuronic acid) [2, 11]: ≈ 100%
concentration at 4 h ([2]; human, in vivo, read-out: Total plasma concentration): ~20 ng/mL
plasma concentrations ([3]; after ingestion of 250 mg ferulic acid from breakfast cereals): 150 to 210 nM
free ferulic acid (share) ([3]; after single ingestion of beer): around 25%
tmax ([3]; other report, ref 6): 0.77 h
tmax ([3]; other report, ref 27): 1 to 3 h
t½ [3]: 6.35 ± 2.95 h

AUC(0-t) [1, 6]: 231 ± 86 ng·h/mL
AUC(0-t) [1, 7]: 399 ± 99 ng·h/mL
Cmax [1, 8]: 33.3 ± 12.5 ng/mL
tmax [1, 12]: 8 h
half-life [1, 9]: 8.89 ± 2.81 h
tmax (time of maximal plasma concentration) [1, 10]: 8.2 ± 2.5 h
Structure (SMILES): O=C1c2c(O)cc(O)cc2O[C@H](c2ccc(O)c(O)c2)[C@H]1O (racemic) [Taxifolin, (±)-taxifolin]

Structure (SMILES): O=C(O)/C=C/c1ccc(O)c(O)c1 [Caffeic acid, caffeic acid]
Cmax [1, 5]: ~90 nM
AUC(0-t) [1, 6]: 75.7 ± 33.5 ng·h/mL
AUC(0-t) [1, 7]: 82.8 ± 36.5 ng·h/mL
Cmax [1, 8]: ~17 ng/mL
tmax [1, 12]: 3 to 4 h
half-life [1, 9]: 4.42 ± 2.47 h
cmax (maximal plasma concentration) [1, 10]: 16.67 ± 13.29 ng/mL
tmax (time of maximal plasma concentration) [1, 10]: 3.7 ± 2.4 h
% conjugated (mean degree of conjugation with sulfate and glucuronic acid) [2, 11]: 69.4 ± 11.8%
% conjugated (mean degree of conjugation with sulfate and glucuronic acid) ([2]; 200 mg Pycnogenol once daily for five days, listed as caffeic acid): 69.4% and 69%
concentration at 4 h [2, 13]: 2.42 ± 1.39 ng/mL
concentration at 4 h [2, 14]: 0.56 ± 0.02 ng/mL
individual degree of conjugation ([2]; single volunteers, 200 mg Pycnogenol daily for five days): 59.6% and 61.5% and 87.6%
Cmax ([3]; after ingestion of 107 mg caffeic acid from artichoke leaf extract): 6.5 ng/mL
tmax ([3]; after ingestion of red wine): 2 h
Cmax ([3]; after intake of 55 μg caffeic acid per kg body weight, read-out: cmax): 84 nM
tmax ([3]; after intake of red wine, coffee or artichoke leaf extract): 0.5 to 1 h
t½ [3]: 3.08 ± 1.53 h

Structure (SMILES): COc1cc(CC2CCC(=O)O2)ccc1O (centres unmarked) [M2, δ-(3-Methoxy-4-hydroxy-phenyl)-γ-valerolactone]
plasma concentration (not detected; lower limit of quantitation) ([1]; after single dose and repeated ingestion of Pycnogenol): < 50 ng/mL
IC50 [4]: 0.5 µM

Structure (SMILES): O=C1CCC(Cc2ccc(O)c(O)c2)O1 (centres unmarked) [M1, δ-(3,4-Dihydroxy-phenyl)-γ-valerolactone]
time of first detection in plasma ([1]; after single dose 300 mg Pycnogenol, first sampling at 0.5 h): 6 h
mean concentration at peak ([1]; around 10 h after single dose 300 mg Pycnogenol, total plasma): 3.59 ng/mL
Cmax [1, 5]: ~20 nM
Cmax [1, 8]: ~4 ng/mL
tmax [1, 12]: ~10 h
presence in plasma over the experimental period of 14 h ([1]; single dose 300 mg Pycnogenol): still present 14 h after Pycnogenol ingestion
% conjugated (mean degree of conjugation with sulfate and glucuronic acid) [2, 11]: ≈ 100%
concentration at 4 h [2, 13]: 3.01 ng/mL
earliest appearance ([3]; after green tea ingestion): 3 h
time of peak plasma levels ([3]; after ingestion of green tea): 5 to 12 h
IC50 [4]: 0.5 µM

Structure (SMILES): Oc1cc(O)c2c(c1)O[C@H](c1ccc(O)c(O)c1)[C@@H](O)C2 [Catechin, (+)-catechin]
concentration at 0.5 h [1, 15]: ~60 ng/mL
concentration at 4 h [1, 15]: ~100 ng/mL
Cmax [1, 5]: ~370 nM
Cmax [1, 8]: ~100 ng/mL
tmax [1, 12]: ≤ 3 h
cmax (maximal plasma concentration) [1, 10]: 107.22 ± 55.49 ng/mL
tmax (time of maximal plasma concentration) [1, 10]: 3.2 ± 1.7 h
concentration at 4 h [2, 13]: 48.6 ± 16.7 ng/mL
concentration at 4 h [2, 14]: 21 ± 13.1 ng/mL
free catechin concentration (share of total) ([2]; both, human, in vivo, 4 h): about 56%
time window of detection of unchanged compound in plasma ([3]; after a high single dose): between 30 min and 12 h
free polyphenol concentration as share of total concentration ([3]; after a single dose of pure catechin): 1.1 to 6.5%
time by which plasma concentrations were not significantly different from baseline ([3]; after ingestion of pure catechin): ≤ 4 h
tmax ([3]; human plasma, after ingestion of red wine or reconstituted red wine): 1.5 h
